Laboratory results: US5834463A, “Condensed heterocyclic compounds, their production and use” (Takeda Chemical Industries, Ltd., priority 1994, dated 1998)

Biological target: T1, human GnRH receptor (Homo sapiens, UniProt P30968)
T1 construct: expressed in transfected cells; host or cells: CHO (Chinese Hamster Ovary) cells, membrane fraction
T1 sequence (P30968 1-328): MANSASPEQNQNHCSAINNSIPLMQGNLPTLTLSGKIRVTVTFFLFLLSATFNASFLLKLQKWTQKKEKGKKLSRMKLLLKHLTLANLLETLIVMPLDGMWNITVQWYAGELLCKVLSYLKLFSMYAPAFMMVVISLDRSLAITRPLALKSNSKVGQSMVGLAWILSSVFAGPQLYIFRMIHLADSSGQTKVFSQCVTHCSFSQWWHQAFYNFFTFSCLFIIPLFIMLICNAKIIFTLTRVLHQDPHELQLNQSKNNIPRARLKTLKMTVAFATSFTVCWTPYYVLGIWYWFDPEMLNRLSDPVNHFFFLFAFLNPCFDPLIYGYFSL
Assay: Test for inhibition of ^125 I-leuprorelin binding to human GnRH receptor
Conditions: membrane fraction of CHO cells expressing human GnRH receptors, 25° C., 60 minutes, read-out: Binding Inhibitory Activity (IC50, μM) for human GnRH receptor
Protocol: (A) Preparation of ^125 I-leuprorelin
Ten μl of a 3×10^-4 M aqueous solution of leuprorelin and 10μl of 0.01 mg/ml lactoperoxidase in 0.1M Hepes buffer (pH7.4) were put in a tube, to which was added 10 μl of an Na^125 I solution (37 MBq). The mixture was stirred, to which was added 10 μl of 0.001% H2 O2, followed by allowing the reaction to proceed for 20 minutes at room temperature. To the reaction mixture was added 700 μl of a 0.05% TFA solution to stop the reaction. The product of was purified by means of a reverse-phase HPLC. Conditions of HPLC were as follows:
(D) Preparation of membrane fraction of CHO (Chinese Hamster Ovary) cells containing human GnRH receptors
CHO cells (10^9) expressing human GnRH receptors were suspended in a phosphate-buffered saline supplemented with 5 mM EDTA. The suspension was subjected to centrifugal separation for 5 minutes at 100×g. To the pellet of cells was added 10 ml of a homogenate buffer for cells (10 mM NaHCO3, 5 mM EDTA, pH 7.5), which was homogenated by using a Polytron homogenizer. Centrifugal separation was conducted for 15 minutes at 400×g. The supernatant was taken into an ultracentrifugal tube, which was subjected to centrifuge for one hour at 100,000×g to give precipitate of the membrane fraction. The precipitate was suspended in 2 ml of the assay buffer, which was centrifuged for one hour at 100,000×g. The membrane fraction recovered as precipitate was again suspended in 20 ml of the assay buffer, which was distributed to vials and stored at -80° C. until used.
(E) Determination of inhibitory rate of ^125 I-leuprorelin binding
In the cases of using rat and human pituitary membrane fractions prepared in (B) and (D), they were respectively diluted with the assay buffer to 200 μg/ml and 188 μl each was distributed to tubes. In the case of using bovine pituitary membrane fraction prepared in (C), it was diluted with the assay buffer to 750 μg/ml and 188 μl each was distributed into tubes. In the case where the membrane fraction of anterior lobes of rat pituitary gland was used, 2 μl of a 0.1 mM compound dissolved in 60% DMSO (dimethylsulfoxide) and 10 μl of 38 nM ^125 I-leuprorelin were added thereto simultaneously. In the case where the membrane fraction of anterior lobes of bovine pituitary gland and the membrane fraction derived from the CHO cells expressing human GnRH receptors were used, 2 μl of a 2 mM compound dissolved in 60% DMSO and 10 μl of 38 nM ^125 I-leuproprelin were added simultaneously. For determining the maximum binding amount, a solution for reaction supplemented with 2 μl of 60% DMSO and 10 μl of 38 nM ^125 I-leuprorelin was prepared. And, for determining the amount of non-specific binding, a solution for reaction supplemented with 2 μl of 100 μM leuprorelin dissolved in 60% DMSO and 10 μl of 38 nM ^125 I-leuprorelin were also prepared simultaneously.
In the cases where membrane fractions of anterior lobes of rat and bovine pituitary were used, reaction was allowed to proceed at 4° C. for 90 minutes, while in the case where the membrane fraction derived from the CHO cells expressing human GnRH receptor was used, reaction was allowed to proceed at 25° C. for 60 minutes. The reaction mixtures were respectively subjected to filtration under sucking with Whatman glass filter (GF-F) processed with polyethyleneimine. After completing the filtration, radioactivity of the ^125 I-leuprorelin remaining on the filter paper was measured with a γ-counter.
By calculation of (TB-SB)/(TB-NSB)×100 (SB: radioactivity obtained when a compound was added, TB: radioactivity for the maximum binding, NSB: radioactivity for the non-specific binding), the binding inhibitory rate of each test compound was determined. Besides, the inhibitory rates were determined by changing the concentrations of test compounds, and the concentration of a test compound inhibiting the specific binding by 50% (IC50 value) was calculated by way of Hill plot.

Which IC50 does the source give for `N#Cc1ccc(CN2C(=O)[C@H]3CCC[C@H]3N(C(=O)CN3C(=O)c4ccccc4C3=O)c3ccccc32)cc1` (relative stereo) [compound 210] here?
The IC50 was 0.4 µM.

With `CSc1ccc(CN2C(=O)[C@H]3CCC[C@H]3N(C(=O)CN3C(=O)c4ccccc4C3=O)c3ccccc32)cc1` (relative stereo) [compound 212] as the compound, how does the IC50 read?
The IC50 was 1 µM.

With `O=C1c2ccccc2C(=O)N1CC(=O)N1c2ccccc2N(Cc2ccc(O)cc2)C(=O)[C@H]2CCC[C@H]21` (relative stereo) [compound 214] as the compound, how does the IC50 read?
Its IC50 is 1 µM.

With `O=C1c2ccccc2C(=O)N1CC(=O)N1c2ccccc2N(Cc2cccc(O)c2)C(=O)[C@H]2CCC[C@H]21` (relative stereo) [compound 215] as the compound, how does the IC50 read?
Its IC50 is 2 µM.

Which IC50 does the source give for `O=C1c2ccccc2C(=O)N1CC(=O)N1c2ccccc2N(CCc2ccccc2)C(=O)[C@H]2CCC[C@H]21` (relative stereo) [compound 217] here?
The IC50 was 0.7 µM.

With `O=C1CC(/C=C/c2ccccc2)Nc2ccccc2N1Cc1ccccc1` (stereo not drawn) [compound 36] as the compound, how does the IC50 read?
The IC50 was 2 µM.

Which IC50 does the source give for `O=C1[C@H]2CCC[C@H]2N(C(=O)CN2C(=O)c3ccccc3C2O)c2ccccc2N1Cc1ccccc1` (stereo partly drawn) [compound 65] here?
The IC50 was 14 µM.

For `O=C1c2ccccc2C(O)N1CC(=O)N1c2ccccc2N(Cc2ccccc2)C[C@H]2CCC[C@H]21` (stereo partly drawn) [compound 66], which IC50 is on record?
The IC50 was 8 µM.

For `O=C1C2=C(CCCC2)C(=O)N1CC(=O)N1c2ccccc2N(Cc2ccccc2)C(=O)C2CCCC21` (stereo not drawn) [compound 76], which IC50 is on record?
The IC50 was 1 µM.

Which IC50 does the source give for `COc1cccc(CN2C(=O)C3CCCC3N(C(=O)CN3C(=O)c4ccccc4C3=O)c3ccccc32)c1` (stereo not drawn) [compound 111] here?
Its IC50 is 4 µM.

With `COc1ccc(CN2C(=O)C3CCCC3N(C(=O)CN3C(=O)c4ccccc4C3=O)c3ccccc32)cc1` (stereo not drawn) [compound 112] as the compound, how does the IC50 read?
The IC50 was 2 µM.

Which IC50 does the source give for `O=C1c2ccccc2C(=O)N1CC(=O)N1c2ccccc2N(c2ccccc2)C(=O)C2CCCC21` (stereo not drawn) [compound 121] here?
Its IC50 is 11 µM.

Which IC50 does the source give for `O=C1C2CCCCC2C(=O)N1CC(=O)N1c2ccccc2N(Cc2ccccc2)C(=O)C2CCCC21` (stereo not drawn) [compound 174] here?
The IC50 was 5 µM.

For `O=C1C2CCCCC2C(=O)N1CC(=O)N1c2ccccc2N(Cc2ccccc2)C(=O)[C@H]2CCC[C@H]21` (stereo partly drawn) [compound 175], which IC50 is on record?
Its IC50 is 1 µM.

System: ethanol-induced sleep in mice
Assay: Effects on ethanol-induced sleep in mice
Type: in vivo, ICR male mice
Conditions: 30 mg/kg orally, 30 minutes before 25% ethanol i.p.; 8 animals
Protocol: (F) Effects on ethanol-induced sleep in mice
ICR male mice of 4-5 week old were orally administered with test compounds suspended in a physiological saline solution or 5% gum arabic solution at a dosage of 30 mg/kg (8 animals in each group). Thirty minutes later, test animals were intrapritoneally injected with 25% ethanol (0.2 mL/10 g). The duration of sleep was measured as the time from the onset of righting reflex until the righting reflex was regained.

Which “Percentage (%) of sleeping time relative to control” value does the source give for `O=C1[C@H]2CCC[C@H]2Nc2ccccc2N1Cc1ccc(Cl)cc1Cl` (relative stereo) [compound 37] here?
The value was 145%.

For `CN1c2ccccc2N(Cc2ccccc2)C(=O)[C@H]2CCC[C@H]21` (relative stereo) [compound 63], which “Percentage (%) of sleeping time relative to control” value is on record?
The value was 37%.

With `CC(=O)N1c2ccccc2N(Cc2ccccc2)C(=O)[C@H]2CCC[C@H]21` (relative stereo) [compound 64] as the compound, how does the “Percentage (%) of sleeping time relative to control” value read?
Its value is 41%.

With `Nc1ccc(CN2C(=O)C3CCCC3=Nc3ccccc32)cc1` (stereo not drawn) [compound 17] as the compound, how does the “Percentage (%) of sleeping time relative to control” value read?
The value was 33%.

With `O=C1N(Cc2ccccc2)c2ccccc2NC2CCCC12Cc1ccccc1` (stereo not drawn) [compound 29] as the compound, how does the “Percentage (%) of sleeping time relative to control” value read?
Its value is 50%.

System: pentobarbital-induced sleep in mice
Assay: Effect on pentobarbital-induced sleep in mice
Type: in vivo, ICR male mice
Conditions: 10 mg/kg orally, 30 minutes before sodium pentobarbital 55 mg/kg i.p.
Protocol: (G) Effect on pentobarbital-induced sleep in mice
ICR male mice of 5-6 week old were orally administered with test samples dissolved or suspended in a physiological saline solution or 5% gum solution dosage of 100 mg/kg (2-3 animals in each group), and behavioral observation was conducted at 15, 30, 60 and 120 minutes after the administration.
As the next stage, ICR male mice of 4-5 week old were orally administered with test samples dissolved or suspended in a physiological saline solution or 5% gum arabic solution at a dosage which was one rank lower than the dosage determined as above (8 animals in each group). Thirty minutes after the administration, test animals were administered intraperitoneally with sodium pentobarbital at a dosage of 55 mg/kg. The duration of sleep was measured as the time from the onset of righting reflex until the righting reflex was regained.

Which “Percentage (%) of sleeping time relative to control” value does the source give for `O=C1C2CCCC2=Nc2ccccc2N1Cc1ccncc1` (stereo not drawn) [compound 9] here?
Its value is 176%.

Same assay, conditions: 20 mg/kg orally, 30 minutes before sodium pentobarbital 55 mg/kg i.p.

Which “Percentage (%) of sleeping time relative to control” value does the source give for `CN1c2ccccc2N(Cc2ccccc2)C[C@H]2CCC[C@H]21` (relative stereo) [compound 45] here?
The value was 124%.

Which “Percentage (%) of sleeping time relative to control” value does the source give for `O=C1C2CCCC2=Nc2ccccc2N1Cc1ccccc1F` (stereo not drawn) [compound 5] here?
The value was 140%.

Same assay, conditions: 50 mg/kg orally, 30 minutes before sodium pentobarbital 55 mg/kg i.p.

Which “Percentage (%) of sleeping time relative to control” value does the source give for `O=C1[C@H]2CCC[C@H]2Nc2ccccc2N1Cc1ccc(Cl)cc1Cl` (relative stereo) [compound 37] here?
The value was 128%.

With `O=C1C2CCCC2=Nc2ccccc2N1Cc1ccc(Cl)cc1` (stereo not drawn) [compound 4] as the compound, how does the “Percentage (%) of sleeping time relative to control” value read?
The value was 140%.

System: GnRH receptor
Assay: not given
Conditions: relative to GnRH obtained from natural sources; cited from earlier work

For `CCNC(=O)[C@@H]1CCCN1C(=O)[C@H](CCCNC(=N)N)NC(=O)[C@H](CC(C)C)NC(=O)[C@@H](CC(C)C)NC(=O)[C@H](Cc1ccc(O)cc1)NC(=O)[C@H](CO)NC(=O)[C@H](Cc1c[nH]c2ccccc12)NC(=O)[C@H](Cc1c[nH]cn1)NC(=O)[C@@H]1CCC(=O)N1` [leuprorelin], which “affinity to GnRH receptor” value is on record?
The value was “higher affinity to GnRH receptor than GnRH obtained from natural sources”.

System: not given
Assay: not given
Conditions: for example, prostatic cancer; cited from earlier work

Which “anti-tumor activity against hormone-dependent cancers” value does the source give for `CCNC(=O)[C@@H]1CCCN1C(=O)[C@H](CCCNC(=N)N)NC(=O)[C@H](CC(C)C)NC(=O)[C@@H](CC(C)C)NC(=O)[C@H](Cc1ccc(O)cc1)NC(=O)[C@H](CO)NC(=O)[C@H](Cc1c[nH]c2ccccc12)NC(=O)[C@H](Cc1c[nH]cn1)NC(=O)[C@@H]1CCC(=O)N1` [Leuprorelin acetate] here?
The value was “shows anti-tumor activity”.

Same assay, conditions: repeated administration; cited from earlier work

Which productivity of testosterone does the source give for `CCNC(=O)[C@@H]1CCCN1C(=O)[C@H](CCCNC(=N)N)NC(=O)[C@H](CC(C)C)NC(=O)[C@@H](CC(C)C)NC(=O)[C@H](Cc1ccc(O)cc1)NC(=O)[C@H](CO)NC(=O)[C@H](Cc1c[nH]c2ccccc12)NC(=O)[C@H](Cc1c[nH]cn1)NC(=O)[C@@H]1CCC(=O)N1` [Leuprorelin acetate] here?
The productivity of testosterone was “reduce the productivity of testosterone to the level of castration”.
